Results: patent US4065356A, “Production of antibiotic FR-02A (efrotomycin) by streptomyces lactamdurans” (priority 1977, dated 1977)
“Also recorded” adds a separate entry of the source.

Experiments:
Proteus vulgaris 838 = experiment: Antibiotic Spectrum Profile, agar diffusion test; type: cell-based; details: 1 mg./ml., read-out: Diameters of Inhibition Zones
stability to handling = type: physicochemical; details: pale yellow solid
Vibrio percolans 1272 = experiment: Antibiotic Spectrum Profile, agar diffusion test; type: cell-based; details: Comamonas terrigena, 1 mg./ml., read-out: Diameters of Inhibition Zones
Vibrio percolans = experiment: agar-diffusion bioassay using Vibrio percolans; type: cell-based; details: Comamonas terrigena; concentration of 200 μ/ml.; LH-20 product
Method: A 0.5 ml. solution of methanol containing 106 mg. of FR-02A obtained from Example 1 above is charged to a 75 ml. bed (1.25 cm. dia. × 56 cm. ht.) of Sephadex LH-20 gel in methanol (Pharmacia Fine Chemicals, Inc., Piscataway, N.J.). The column is developed with methanol. […] Fractions are bioassayed at a 1-10 dilution with 1/2 dia. paper discs on agar-diffusion assay plates seeded with Vibrio percolans. Zones of inhibition are obtained corresponding to the third mass peak (KD = 0.3) detected. The fractions corresponding to the third mass peak are combined and evaporated to yield 43 mg. of FR-02A.
The product when assayed in the above agar-diffusion bioassay using Vibrio percolans gives a 16 mm. zone of inhibition at a concentration of 200 μ/ml. The U.V. absorption in pH 7.0 phosphate buffer was: […]

bacteria = experiment: antibacterial activity in vivo in mice; details: in words
gram-positive bacteria = experiment: antibacterial activity; type: cell-based
coccidia [1] = experiment: mouse coccidiosis; details: in vivo
Streptococcus pyogenes = experiment: in vitro activity; type: cell-based
PPLO [2] = experiment: PPLO in cattle; type: in vivo
Streptococcusagalactiae = experiment: in vitro activity; type: cell-based
[3] = tested on: Xanthomonas vesicatoria 815; experiment: Antibiotic Spectrum Profile, agar diffusion test; type: cell-based; details: 1 mg./ml., read-out: Diameters of Inhibition Zones
E. coli (MB 1418) = experiment: in vitro activity; type: cell-based
Strep. faecium 2820 = experiment: Antibiotic Spectrum Profile, agar diffusion test; type: cell-based; details: Enterococcus faecium, 1 mg./ml., read-out: Diameters of Inhibition Zones
Bordetella = experiment: in vitro activity; type: cell-based
[4] = tested on: Staphylococcus aureus (MB 108); experiment: in vitro activity; type: cell-based
[5] = tested on: Klebsiella pneumoniae 1264; experiment: Antibiotic Spectrum Profile, agar diffusion test; type: cell-based; details: 1 mg./ml., read-out: Diameters of Inhibition Zones
coccidia [6] = experiment: activity against coccidia; type: cell-based
[7] = growth promotion in animals; type: in vivo, animals such as chickens, sheep and cattle; details: feed additive
Streptococcus faecalis = experiment: in vitro activity; type: cell-based
S. aureus 3032 = experiment: Antibiotic Spectrum Profile, agar diffusion test; type: cell-based; details: Staphylococcus aureus, 1 mg./ml., read-out: Diameters of Inhibition Zones
M. gallisepticum = M. gallisepticum air sacculitis in broilers; type: in vivo
solubility = type: physicochemical; details: water-immiscible organic solvents
PPLO [8] = experiment: PPLO in pigs; type: in vivo
E. coli 60 = experiment: Antibiotic Spectrum Profile, agar diffusion test; type: cell-based; details: Escherichia coli, 1 mg./ml., read-out: Diameters of Inhibition Zones
Strep. pyogenes = experiment: in vivo test in mice, Strep. pyogenes infection; details: infection IP, therapy IP, at time of infection and 6 hours later
Method: (§1) *Values in the table are expressed in mg./mouse. Both infections and
(§2) therapeutic doses of FR-02A were administered intraperitoneally. FR-02A
(§3) was administered at time of infection and again 6 hours later.

[9] = tested on: Staphylococcus aureus (MB 210); experiment: in vitro activity; type: cell-based
Streptococcus faecum = experiment: in vitro activity; type: cell-based
Erwinia auroseptica 1159 = experiment: Antibiotic Spectrum Profile, agar diffusion test; type: cell-based; details: 1 mg./ml., read-out: Diameters of Inhibition Zones
S. aureus 2756 = experiment: Antibiotic Spectrum Profile, agar diffusion test; type: cell-based; details: Staphylococcus aureus, 1 mg./ml., read-out: Diameters of Inhibition Zones
[10] = tested on: Pseudomonas stutzeri (MB 1231); experiment: in vitro activity; type: cell-based
[11] = tested on: Bacillus subtilis (MB 964); experiment: in vitro activity; type: cell-based
Escherichia coli 1418 = experiment: Antibiotic Spectrum Profile, agar diffusion test; type: cell-based; details: 1 mg./ml., read-out: Diameters of Inhibition Zones
Aerobacter aerogenes 835 = experiment: Antibiotic Spectrum Profile, agar diffusion test; type: cell-based; details: Klebsiella aerogenes, 1 mg./ml., read-out: Diameters of Inhibition Zones
E. acervulina = experiment: in vitro activity; type: cell-based
gram-negative bacteria = experiment: antibacterial activity; type: cell-based
Proteus vulgaris = experiment: in vivo test in mice, Proteus vulgaris infection; details: infection IP, therapy IP, at time of infection and 6 hours later
Method: as §1, §2, §3

[12] = tested on: Brucella bronchiseptica 965; experiment: microbe, parasite or virus in culture; type: cell-based; details: Bordetella bronchiseptica, 965, read-out: Diameters of Inhibition Zones
species of Mycoplasma = experiment: activity against Mycoplasma; type: cell-based
coccidia [13] = experiment: chicken coccidiosis; type: in vivo; details: most prevalent types
PPLO [14] = experiment: PPLO in chickens; type: in vivo
[15] = tested on: Bacillus subtilis (MB 797); experiment: in vitro activity; type: cell-based
[16] = tested on: Salmonealla gallinarum (MB 1287); experiment: in vitro activity; type: cell-based

CC=CC=CC1OC(O)(C(CC)C(=O)NCC=CC=C(C)C(OC)C(C)C2OC(C=CC=CC=C(C)C(=O)c3c(O)ccn(C)c3=O)C(O)C2O)C(O)C(OC2OC(C)C(OC3OC(C)C(OC)C(O)C3OC)C(OC)C2O)C1(C)C (stereo not shown) [FR-02A, efrotomycin]
zone of inhibition at 1000 µg/mL (Proteus vulgaris 838): 18 mm
stability to normal handling (stability to handling): stable to normal handling
zone of inhibition at 1000 µg/mL (Vibrio percolans 1272): 21 mm
zone of inhibition at 200 µg/mL (Vibrio percolans): 16 mm
antibacterial activity in vivo (bacteria): broad spectrum of antibacterial activity
activity against gram-positive bacteria (gram-positive bacteria): shows activity; also recorded: effective
efficacy against mouse coccidiosis (coccidia [1]): effective
in vitro activity (Streptococcus pyogenes): effective
efficacy against PPLO (PPLO [2]): effective
in vitro activity (Streptococcusagalactiae): effective
zone of inhibition at 1000 µg/mL [3]: 13 mm
activity (E. coli (MB 1418)): Activity was also found
zone of inhibition at 1000 µg/mL (Strep. faecium 2820): 20 mm
in vitro activity (Bordetella): effective
activity [4]: Activity was also found
zone of inhibition at 1000 µg/mL [5]: 16 mm
activity against coccidia (coccidia [6]): shows activity
growth promotion [7]: shortens the time required for bringing animals up to marketable weight
in vitro activity (Streptococcus faecalis): effective
zone of inhibition at 1000 µg/mL (S. aureus 3032): 12 mm
ED50 (M. gallisepticum; Mycoplasmoides gallisepticum, air sacculitis in broilers): 40 to 100 mg/kg
efficacy against M. gallisepticum air sacculitis (M. gallisepticum; subcutaneously, broilers): efficacious
solubility in water-immiscible organic solvents (solubility): highly soluble
efficacy against PPLO (PPLO [8]): effective
zone of inhibition at 1000 µg/mL (E. coli 60): 10 mm
ED50 (Strep. pyogenes): 0.247 mg./mouse
activity [9]: Activity was also found
in vitro activity (Streptococcus faecum): effective
zone of inhibition at 1000 µg/mL (Erwinia auroseptica 1159): 12 mm
zone of inhibition at 1000 µg/mL (S. aureus 2756): 23 mm
activity [10]: Activity was also found
activity [11]: Activity was also found
zone of inhibition at 1000 µg/mL (Escherichia coli 1418): 15 mm
zone of inhibition at 1000 µg/mL (Aerobacter aerogenes 835): 13 mm
in vitro activity (E. acervulina): effective
activity against gram-negative bacteria (gram-negative bacteria): shows activity; also recorded: effective
ED50 (Proteus vulgaris): 1.73 mg./mouse
zone of inhibition at 1000 µg/mL [12]: 18 mm
activity against species of Mycoplasma (species of Mycoplasma): shows activity
efficacy against chicken coccidiosis (coccidia [13]): effective
efficacy against PPLO (PPLO [14]): effective
activity [15]: Activity was also found
activity [16]: Activity was also found
